This experiment deals with T1, Renin (Homo sapiens) (UniProt P00797).
T1 sequence (whole entry): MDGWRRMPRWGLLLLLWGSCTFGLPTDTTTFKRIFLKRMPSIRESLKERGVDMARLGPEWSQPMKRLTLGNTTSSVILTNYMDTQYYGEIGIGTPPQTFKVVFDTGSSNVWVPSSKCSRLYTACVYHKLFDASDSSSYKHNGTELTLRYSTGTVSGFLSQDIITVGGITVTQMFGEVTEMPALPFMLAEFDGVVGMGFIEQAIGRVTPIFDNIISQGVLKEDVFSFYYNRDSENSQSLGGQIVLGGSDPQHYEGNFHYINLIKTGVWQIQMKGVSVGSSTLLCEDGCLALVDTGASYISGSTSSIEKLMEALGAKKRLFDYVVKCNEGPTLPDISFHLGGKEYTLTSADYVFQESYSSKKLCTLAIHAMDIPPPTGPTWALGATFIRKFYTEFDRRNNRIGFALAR
Put plainly: The compound was evaluated for inhibitory activity against monkey plasma renin at concentration of […]. Format: cell-free. The following applies: Cercopithecidae, target entry is the homologue from another species.

The structures appear in SMILES notation.

Molecule `C=CC[C@H](NC(=O)CNS(=O)(=O)N1CCOCC1)C(=O)N[C@@H](CC1CCC(CCC(C)C)CC1)[C@@H](O)[C@@H](O)CC(C)C` (stereo partly specified) came in with an inhibition of 29%.

Usually inhibition stands for the percentage by which the read-out fell short of the control.

The values are drawn from ChEMBL document CHEMBL1127130, “Peptidomimetic inhibitors of renin incorporating topographically modified isosteres spanning the P1( P3)-P1' sites” (Bioorg Med Chem Lett, 1993).
